Experimental data taken from PubChem BioAssay AID330 (DTP/NCI, 2004).
“And” between values parts separate entries of the source, which are not always exact repeats. Identical values can stand only once. Inconclusive results and toxic doses are left out. How the source made its calls: active means survival T/C of 150% or more; inactive means T/C below 125% in these data.

Test system: P388 leukemia ip, CD2F1 mice, survival T/C
Assay: NCI In Vivo Anticancer Drug Screen. Data for tumor model P388 Leukemia (intraperitoneal) in CD2F1 (CDF1) mice
Conditions: endpoint: median survival time, higher = longer survival
Method in brief: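 Mice carrying the transplanted tumor received test compound or vehicle. Survival was recorded in each group, and the value is the treated-group measurement divided by that of the vehicle-treated control group.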

[1] = dose: 50.0 mg/kg/injection, schedule: Q01DX009 (ip), vehicle: saline
[2] = dose: 100.0 mg/kg/injection, schedule: Q01DX009 (ip), vehicle: saline
[3] = dose: 200.0 mg/kg/injection, schedule: Q01DX009 (ip), vehicle: saline
[4] = dose: 12.5 mg/kg/injection, schedule: Q01DX009 (ip), vehicle: saline with Tween-80
[5] = dose: 25.0 mg/kg/injection, schedule: Q01DX009 (ip), vehicle: saline with Tween-80
[6] = dose: 50.0 mg/kg/injection, schedule: Q01DX009 (ip), vehicle: saline with Tween-80
[7] = dose: 100.0 mg/kg/injection, schedule: Q01DX009 (ip), vehicle: saline with Tween-80
[8] = dose: 50.0 mg/kg/injection, schedule: Q01DX005 (ip), vehicle: saline with Tween-80
[9] = dose: 100.0 mg/kg/injection, schedule: Q01DX005 (ip), vehicle: saline with Tween-80
[10] = dose: 200.0 mg/kg/injection, schedule: Q01DX005 (ip), vehicle: saline with Tween-80
[11] = dose: 100.0 mg/kg/injection, schedule: Q04DX003 (ip), vehicle: saline with Tween-80
[12] = dose: 60.0 mg/kg/injection, schedule: Q01DX005 (ip), vehicle: saline with Tween-80
[13] = dose: 120.0 mg/kg/injection, schedule: Q01DX005 (ip), vehicle: saline with Tween-80
[14] = dose: 240.0 mg/kg/injection, schedule: Q01DX005 (ip), vehicle: saline with Tween-80

Measured: T/C

CC1(c2ccccn2)OCCO1
inactive: [1] 97 % of control | [2] 104 % of control | [3] 108 % of control

COc1ccc(C2=C(C#N)C(=C(C#N)C#N)NC(N)=C2C#N)cc1
inactive: dose: 60.0 mg/kg/injection, schedule: Q01DX005 (ip), vehicle: Klucel (hydroxypropylcellulose) (HPC) 105 % of control | dose: 120.0 mg/kg/injection, schedule: Q01DX005 (ip), vehicle: Klucel (hydroxypropylcellulose) (HPC) 91 % of control

CCCCCOC(=O)c1ccc(O)cc1
inactive: [4] 108 % of control | [5] 100 % of control | [6] 99 % of control and 100 % of control | [7] 94 % of control

CCOC(=O)C1CC(C)CC1=O (centres undefined)
inactive: [1] 96 % of control | [2] 98 % of control | [3] 102 % of control

CC(C)=CC1C(/C(C)=C/CCCCC(=O)O)C1(C)C (centres undefined)
inactive: dose: 100.0 mg/kg/injection, schedule: Q04DX002 (ip), vehicle: saline with Tween-80 101 % of control | dose: 200.0 mg/kg/injection, schedule: Q04DX002 (ip), vehicle: saline with Tween-80 94 % of control | dose: 400.0 mg/kg/injection, schedule: Q04DX002 (ip), vehicle: saline with Tween-80 96 % of control

Cc1cn(C23CC4CC(CC(C4)C2)C3)c(=O)[nH]c1=O
inactive: dose: 50.0 mg/kg/injection, schedule: Q01DX005 (ip), vehicle: Klucel (hydroxypropylcellulose) (HPC) 101 % of control | dose: 100.0 mg/kg/injection, schedule: Q01DX005 (ip), vehicle: Klucel (hydroxypropylcellulose) (HPC) 101 % of control | dose: 200.0 mg/kg/injection, schedule: Q01DX005 (ip), vehicle: Klucel (hydroxypropylcellulose) (HPC) 97 % of control

C=CCCCCCCCCCC(=O)C=C
inactive: dose: 2.75 mg/kg/injection, schedule: Q01DX005 (ip), vehicle: Klucel (hydroxypropylcellulose) (HPC) 98 % of control | dose: 5.5 mg/kg/injection, schedule: Q01DX005 (ip), vehicle: Klucel (hydroxypropylcellulose) (HPC) 99 % of control | dose: 11.0 mg/kg/injection, schedule: Q01DX005 (ip), vehicle: Klucel (hydroxypropylcellulose) (HPC) 92 % of control | dose: 22.0 mg/kg/injection, schedule: Q01DX005 (ip), vehicle: Klucel (hydroxypropylcellulose) (HPC) 92 % of control | dose: 44.0 mg/kg/injection, schedule: Q01DX005 (ip), vehicle: Klucel (hydroxypropylcellulose) (HPC) 91 % of control

O=C1NC(O)c2cccc(Br)c2O1 (centres undefined)
inactive: [8] 93 % of control | [9] 107 % of control | [10] 117 % of control

COc1cc(OC)c(OC)cc1/C=N/NC(=O)N/N=C/c1cc(OC)c(OC)cc1OC
inactive: dose: 12.5 mg/kg/injection, schedule: Q01DX009 (ip), vehicle: distilled water + Tween-80 96 % of control | dose: 25.0 mg/kg/injection, schedule: Q01DX009 (ip), vehicle: distilled water + Tween-80 96 % of control | dose: 50.0 mg/kg/injection, schedule: Q01DX009 (ip), vehicle: distilled water + Tween-80 108 % of control | dose: 100.0 mg/kg/injection, schedule: Q01DX009 (ip), vehicle: distilled water + Tween-80 99 % of control | dose: 200.0 mg/kg/injection, schedule: Q01DX009 (ip), vehicle: distilled water + Tween-80 94 % of control | dose: 400.0 mg/kg/injection, schedule: Q01DX009 (ip), vehicle: distilled water + Tween-80 86 % of control

O=[N+]([O-])/C=C/c1cc2c(cc1Br)OCO2
inactive: [11] 113 % of control | dose: 200.0 mg/kg/injection, schedule: Q04DX003 (ip), vehicle: saline with Tween-80 113 % of control

CCN(CCCl)c1ccccc1
inactive: dose: 3.12 mg/kg/injection, schedule: Q01DX009 (ip), vehicle: saline 105 % of control | dose: 6.25 mg/kg/injection, schedule: Q01DX009 (ip), vehicle: saline 106 % of control | dose: 12.5 mg/kg/injection, schedule: Q01DX009 (ip), vehicle: saline 116 % of control | dose: 25.0 mg/kg/injection, schedule: Q01DX009 (ip), vehicle: saline 106 % of control and 115 % of control

O=C1CN(c2cccc(Cl)c2)C(=O)CN1/N=C/c1ccccn1
inactive: [8] 100 % of control | [9] 106 % of control | [10] 100 % of control

CSC(=S)NN=C1CCCCC1
inactive: dose: 0.78 mg/kg/injection, schedule: Q01DX009 (ip), vehicle: saline with Tween-80 97 % of control | dose: 1.56 mg/kg/injection, schedule: Q01DX009 (ip), vehicle: saline with Tween-80 108 % of control | dose: 3.13 mg/kg/injection, schedule: Q01DX009 (ip), vehicle: saline with Tween-80 105 % of control | dose: 6.25 mg/kg/injection, schedule: Q01DX009 (ip), vehicle: saline with Tween-80 98 % of control | [4] 113 % of control

O=[N+]([O-])c1cc(I)c(O)c(/C=N/NS(=O)(=O)c2ccc(Cl)cc2)c1
inactive: [8] 101 % of control | [9] 100 % of control

Cc1cccc(-c2nnc(N)o2)c1[N+](=O)[O-]
inactive: [12] 108 % of control | [13] 108 % of control | [14] 101 % of control

CCO/C=C/C(=O)O
inactive: [12] 106 % of control | [13] 100 % of control | [14] 107 % of control

O=C1C2CCC(C2)C1CN1CCCCC1 (centres undefined)
inactive: dose: 6.25 mg/kg/injection, schedule: Q01DX005 (ip), vehicle: saline with Tween-80 101 % of control | dose: 12.5 mg/kg/injection, schedule: Q01DX005 (ip), vehicle: saline with Tween-80 98 % of control | dose: 25.0 mg/kg/injection, schedule: Q01DX005 (ip), vehicle: saline with Tween-80 103 % of control

O=C1C(N=Nc2ccc([N+](=O)[O-])cc2)Sc2nc3ccccc3n21 (centres undefined)
inactive: dose: 7.5 mg/kg/injection, schedule: Q01DX005 (ip), vehicle: Klucel (hydroxypropylcellulose) (HPC) 99 % of control | dose: 15.0 mg/kg/injection, schedule: Q01DX005 (ip), vehicle: Klucel (hydroxypropylcellulose) (HPC) 92 % of control | dose: 30.0 mg/kg/injection, schedule: Q01DX005 (ip), vehicle: Klucel (hydroxypropylcellulose) (HPC) 90 % of control

CCOC(=O)/C=C(\C)NC1CC(=O)NC1=O (centres undefined)
inactive: dose: 50.0 mg/kg/injection, schedule: Q01DX009 (ip), vehicle: distilled water + alcohol 104 % of control | dose: 100.0 mg/kg/injection, schedule: Q01DX009 (ip), vehicle: distilled water + alcohol 108 % of control

Cc1ccc(O)c(C2CC(=O)NC(NC#N)=N2)c1 (centres undefined)
inactive: [1] 103 % of control | [2] 101 % of control | [3] 101 % of control

O=C1CN(/N=C\c2ccc([N+](=O)[O-])o2)C(=O)N1
inactive: [5] 100 % of control | dose: 25.0 mg/kg/injection, schedule: Q04DX003 (ip), vehicle: saline with Tween-80 110 % of control | [6] 100 % of control | dose: 50.0 mg/kg/injection, schedule: Q04DX003 (ip), vehicle: saline with Tween-80 110 % of control | [7] 109 % of control | [11] 105 % of control

CC(C)Cc1cccc2c1CCCC2
inactive: dose: 50.0 mg/kg/injection, schedule: Q01DX005 (ip), vehicle: suspension in saline 97 % of control | dose: 100.0 mg/kg/injection, schedule: Q01DX005 (ip), vehicle: suspension in saline 97 % of control | dose: 200.0 mg/kg/injection, schedule: Q01DX005 (ip), vehicle: suspension in saline 101 % of control
